Consider one compound from patent publication US12377110B2, “Fospropofol methods and compositions” (Epalex Corporation, priority 2019, dated 2025).

A short description of data set [1]: Study No. 15-3 (GLP): 14-day once daily oral gavage toxicity of fospropofol disodium. The class given is in vivo, Sprague-Dawley rats. The settings on record: both sexes, rat, in vivo; 14 days once daily oral gavage, Sprague-Dawley rats. As to the method:
(§1) The purpose of Study No. 15-3 (GLP) was to determine the potential toxicity of fospropofol in Sprague-Dawley rats when administered once daily by oral gavage for 14 days. […] The cause of death for the three 250 mg/kg/day group main study females found dead could not be determined, but was considered related to the pharmacodynamic effects of fospropofol, based on the time of death relative to the time of close administration, and the clinical signs recorded before death. Clinical observations during the closing period for these animals included labored breathing, prostrate, splayed hindlimbs, uncoordinated movement, decreased activity, and eyes closed.
(§2) Pivotal GLP 14-day repeat-close toxicity studies with 7-day recovery periods were conducted in Sprague-Dawley rats (Study No. 15-3) and Beagle dogs (Study No. 15-4). […] The cause of death for these animals was considered to be related to the known pharmacodynamic effects of high doses of fospropofol, based on the time of death relative to the time of close administration, and the clinical signs recorded before death which included: labored breathing, prostrate, splayed hindlimbs, uncoordinated movement, decreased activity, and eyes closed. […] The NOAEL was determined to be 100 mg/kg/day (600 mg/m^2/day) in male and female Sprague-Dawley rats.

The subject of a further data set is Sprague-Dawley rats. The data set is described as above. The class given is in vivo. The protocol: as §1, §2

`CC(C)c1cccc(C(C)C)c1OCOP(=O)([O-])O.[Na+]` [fospropofol disodium] yielded an NOAEL at 14 days in data set [1] of 100 mg/kg/day. Also, the Mortality result with Sprague-Dawley rats (0, 50, 100, and 250 mg/kg/day for 14 consecutive days) is “treatment-related mortalities at 250 mg/kg/day”. Further, in the data set with Sprague-Dawley rats (250 mg/kg/day), the Body weight gain entry is given as “reduced body weight gain” and the Prothrombin time result is reported as “transient increase in prothrombin time”. The “Gross observations and microscopic findings” value with Sprague-Dawley rats (250 mg/kg/day main study females found dead) is on record as “no treatment-related gross observations or microscopic findings”. This compound also showed a no-observed-adverse-effect level (NOAEL) in the data set with Sprague-Dawley rats (14 days once daily oral gavage, Sprague-Dawley rats) of 600 mg/m^2/day. The compound further yielded a Mortalities with Sprague-Dawley rats (high dose level (250 mg/kg/day), 14 days) of 4. For the same compound, the “Histopathology, all tissues including GIT-related” value with Sprague-Dawley rats (up to 250 mg/kg/day) is given as “no treatment-related histopathology findings”.

A word on the NOAEL: it is the highest dose or exposure tested at which no adverse effect was seen.
